Measured values reported in a compilation of properties of binary mixtures (doi:10.1039/b315616h).

Assay: xn = mol fraction of the nth substance listed
Settings: 101.3 kPa, x2 = 0.865

CCCCCC[n+]1ccn(C)c1.F[B-](F)(F)F + CCCCCO
Settings | viscosity [mPa·s]
314.94 K | 5.47
315.04 K | 5.22
315.1 K | 5.14
315.15 K | 5.09
315.2 K | 5.04
315.24 K | 5
315.3 K | 4.96
315.44 K | 4.87
315.54 K | 4.83
315.58 K | 4.8
315.71 K | 4.76
315.75 K | 4.74
315.88 K | 4.7
315.91 K | 4.69
315.94 K | 4.68
315.98 K | 4.67
316.07 K | 4.64
316.22 K | 4.6
316.42 K | 4.54
316.73 K | 4.46
317.23 K | 4.35
319.34 K | 3.98
321.14 K | 3.74
323.16 K | 3.51
325.69 K | 3.262
328.15 K | 3.047
